Key:
[1] = target: LIM domain kinase 1 (Homo sapiens) (UniProt P53667)
[2] = target: Cyclin-dependent kinase 17 (Homo sapiens) (UniProt Q00537)
[3] = target: Serine/threonine-protein kinase 24 (Homo sapiens) (UniProt Q9Y6E0)
[4] = target: Serine/threonine-protein kinase Sgk3 (Homo sapiens) (UniProt Q96BR1)
[5] = target: Calcium/calmodulin-dependent protein kinase type 1G (Homo sapiens) (UniProt Q96NX5)
[6] = target: Protein kinase C delta type (Homo sapiens) (UniProt Q05655)
[7] = target: Phosphatidylinositol 5-phosphate 4-kinase type-2 beta (Homo sapiens) (UniProt P78356)
[8] = target: Mitotic checkpoint serine/threonine-protein kinase BUB1 (Homo sapiens) (UniProt O43683)
[9] = system: Tyrosine-protein kinase ABL1 (Homo sapiens), P00519 [F317L]
[10] = target: Serine/threonine-protein kinase VRK2 (Homo sapiens) (UniProt Q86Y07)
[11] = target: Inhibitor of nuclear factor kappa-B kinase subunit epsilon (Homo sapiens) (UniProt Q14164)
[12] = target: Beta-1 adrenergic receptor (Homo sapiens) (UniProt P08588); details: Compound concentration 10.0 uM
[13] = target: Megakaryocyte-associated tyrosine-protein kinase (Homo sapiens) (UniProt P42679)
[14] = target: Tyrosine-protein kinase ABL1 (Homo sapiens) (UniProt P00519)
[15] = target: Wee1-like protein kinase 2 (Homo sapiens) (UniProt P0C1S8)
[16] = target: Mitogen-activated protein kinase kinase kinase 19 (Homo sapiens) (UniProt Q56UN5)
[17] = target: Non-receptor tyrosine-protein kinase TYK2 (Homo sapiens) (UniProt P29597)
[18] = target: Cyclin-dependent kinase 19 (Homo sapiens) (UniProt Q9BWU1)
[19] = target: 5-hydroxytryptamine receptor 2B (Homo sapiens, UniProt P41595); details: Compound concentration 10.0 uM
[20] = target: 5-hydroxytryptamine receptor 7 (Homo sapiens) (UniProt P34969); details: Compound concentration 10.0 uM
[21] = target: Tyrosine-protein kinase receptor UFO (Homo sapiens) (UniProt P30530)
[22] = target: Mitogen-activated protein kinase 10 (Homo sapiens) (UniProt P53779)
[23] = target: Histamine H4 receptor (Homo sapiens) (UniProt Q9H3N8); details: Compound concentration 10.0 uM
[24] = target: Muscarinic acetylcholine receptor M5 (Homo sapiens) (UniProt P08912); details: Compound concentration 10.0 uM
[25] = system: Phosphatidylinositol 4,5-bisphosphate 3-kinase catalytic subunit alpha isoform (Homo sapiens), P42336 [M1043I]
[26] = system: Receptor-type tyrosine-protein kinase FLT3 (Homo sapiens), P36888 [K663Q]
[27] = target: Serine/threonine-protein kinase 35 (Homo sapiens) (UniProt Q8TDR2)
[28] = target: Serine/threonine-protein kinase Sgk1 (Homo sapiens) (UniProt O00141)
[29] = target: Homeodomain-interacting protein kinase 1 (Homo sapiens) (UniProt Q86Z02)
[30] = target: Cyclin-dependent kinase 4 (Homo sapiens) (UniProt P11802)
[31] = target: Serine/threonine-protein kinase PAK 5 (Homo sapiens) (UniProt Q9P286)
[32] = target: Epidermal growth factor receptor (Homo sapiens) (UniProt P00533)
[33] = target: Serine/threonine-protein kinase 3 (Homo sapiens) (UniProt Q13188)
[34] = target: Serine/threonine-protein kinase DCLK1 (Homo sapiens) (UniProt O15075)
[35] = target: Homeodomain-interacting protein kinase 4 (Homo sapiens) (UniProt Q8NE63)
[36] = target: Mitogen-activated protein kinase kinase kinase kinase 5 (Homo sapiens) (UniProt Q9Y4K4)
[37] = target: Ephrin type-A receptor 3 (Homo sapiens) (UniProt P29320)
[38] = target: Activin receptor type-1 (Homo sapiens) (UniProt Q04771)
[39] = target: Cyclin-dependent kinase-like 3 (Homo sapiens) (UniProt Q8IVW4)
[40] = target: Glycogen synthase kinase-3 alpha (Homo sapiens, UniProt P49840)
[41] = target: AP2-associated protein kinase 1 (Homo sapiens) (UniProt Q2M2I8)
[42] = system: Tyrosine-protein kinase ABL1 (Homo sapiens), P00519 [E255K]
[43] = target: Cyclin-dependent kinase 15 (Homo sapiens) (UniProt Q96Q40)
[44] = target: BMP-2-inducible protein kinase (Homo sapiens) (UniProt Q9NSY1)
[45] = target: Muscle, skeletal receptor tyrosine-protein kinase (Homo sapiens) (UniProt O15146)
[46] = target: Tyrosine-protein kinase Mer (Homo sapiens) (UniProt Q12866)
[47] = Compound concentration 1000.0 nM
[48] = Compound concentration 100.0 nM

Serine/threonine-protein kinase VRK2 (Homo sapiens), sequence (Q86Y07 whole entry): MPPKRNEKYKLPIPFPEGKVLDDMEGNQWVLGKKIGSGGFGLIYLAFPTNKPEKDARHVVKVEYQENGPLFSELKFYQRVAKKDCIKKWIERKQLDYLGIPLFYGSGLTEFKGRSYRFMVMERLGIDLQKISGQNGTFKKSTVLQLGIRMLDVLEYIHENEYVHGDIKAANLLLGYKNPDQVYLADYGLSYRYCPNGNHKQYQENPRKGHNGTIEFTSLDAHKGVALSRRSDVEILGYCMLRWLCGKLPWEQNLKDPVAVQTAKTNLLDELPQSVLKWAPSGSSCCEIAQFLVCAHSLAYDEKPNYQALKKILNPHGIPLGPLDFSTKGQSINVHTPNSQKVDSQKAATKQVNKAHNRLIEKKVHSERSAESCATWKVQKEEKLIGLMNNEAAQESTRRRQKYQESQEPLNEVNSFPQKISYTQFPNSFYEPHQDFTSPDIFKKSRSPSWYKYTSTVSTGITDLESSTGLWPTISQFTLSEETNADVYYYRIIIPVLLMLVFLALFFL
Activin receptor type-1 (Homo sapiens), sequence (Q04771 whole entry): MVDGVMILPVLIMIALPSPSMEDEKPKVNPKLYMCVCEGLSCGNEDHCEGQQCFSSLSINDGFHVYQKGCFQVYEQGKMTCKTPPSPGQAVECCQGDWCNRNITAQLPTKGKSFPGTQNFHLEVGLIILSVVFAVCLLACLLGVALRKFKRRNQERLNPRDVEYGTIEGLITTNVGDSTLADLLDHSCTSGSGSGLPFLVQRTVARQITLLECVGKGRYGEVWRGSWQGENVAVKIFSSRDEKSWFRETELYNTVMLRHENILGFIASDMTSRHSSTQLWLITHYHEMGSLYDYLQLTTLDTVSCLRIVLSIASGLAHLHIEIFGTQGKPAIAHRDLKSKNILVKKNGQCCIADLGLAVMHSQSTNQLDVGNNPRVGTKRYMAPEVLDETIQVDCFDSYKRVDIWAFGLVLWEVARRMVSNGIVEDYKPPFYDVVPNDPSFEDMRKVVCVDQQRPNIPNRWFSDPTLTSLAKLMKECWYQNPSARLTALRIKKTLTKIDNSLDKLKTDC
Serine/threonine-protein kinase PAK 5 (Homo sapiens), sequence (Q9P286 whole entry, looked up): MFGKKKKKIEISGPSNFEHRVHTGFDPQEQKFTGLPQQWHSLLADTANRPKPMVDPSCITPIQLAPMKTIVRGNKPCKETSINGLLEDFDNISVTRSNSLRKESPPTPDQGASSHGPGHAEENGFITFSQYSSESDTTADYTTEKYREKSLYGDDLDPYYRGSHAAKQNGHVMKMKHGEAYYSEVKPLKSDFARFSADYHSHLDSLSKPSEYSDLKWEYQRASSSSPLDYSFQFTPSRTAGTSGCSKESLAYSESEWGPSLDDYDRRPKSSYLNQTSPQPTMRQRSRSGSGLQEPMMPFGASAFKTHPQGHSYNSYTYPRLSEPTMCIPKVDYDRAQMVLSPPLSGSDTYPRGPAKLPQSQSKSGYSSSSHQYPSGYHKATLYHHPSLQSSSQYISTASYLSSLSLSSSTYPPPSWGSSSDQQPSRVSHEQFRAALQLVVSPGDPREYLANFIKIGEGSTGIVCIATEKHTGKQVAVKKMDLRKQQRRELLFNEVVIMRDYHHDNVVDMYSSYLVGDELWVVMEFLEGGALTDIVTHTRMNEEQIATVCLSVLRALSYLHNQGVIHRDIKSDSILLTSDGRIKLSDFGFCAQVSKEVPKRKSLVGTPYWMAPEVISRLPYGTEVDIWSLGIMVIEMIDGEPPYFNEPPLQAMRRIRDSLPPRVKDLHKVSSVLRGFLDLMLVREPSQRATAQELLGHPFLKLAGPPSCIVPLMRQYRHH
Serine/threonine-protein kinase DCLK1 (Homo sapiens), sequence (O15075 whole entry): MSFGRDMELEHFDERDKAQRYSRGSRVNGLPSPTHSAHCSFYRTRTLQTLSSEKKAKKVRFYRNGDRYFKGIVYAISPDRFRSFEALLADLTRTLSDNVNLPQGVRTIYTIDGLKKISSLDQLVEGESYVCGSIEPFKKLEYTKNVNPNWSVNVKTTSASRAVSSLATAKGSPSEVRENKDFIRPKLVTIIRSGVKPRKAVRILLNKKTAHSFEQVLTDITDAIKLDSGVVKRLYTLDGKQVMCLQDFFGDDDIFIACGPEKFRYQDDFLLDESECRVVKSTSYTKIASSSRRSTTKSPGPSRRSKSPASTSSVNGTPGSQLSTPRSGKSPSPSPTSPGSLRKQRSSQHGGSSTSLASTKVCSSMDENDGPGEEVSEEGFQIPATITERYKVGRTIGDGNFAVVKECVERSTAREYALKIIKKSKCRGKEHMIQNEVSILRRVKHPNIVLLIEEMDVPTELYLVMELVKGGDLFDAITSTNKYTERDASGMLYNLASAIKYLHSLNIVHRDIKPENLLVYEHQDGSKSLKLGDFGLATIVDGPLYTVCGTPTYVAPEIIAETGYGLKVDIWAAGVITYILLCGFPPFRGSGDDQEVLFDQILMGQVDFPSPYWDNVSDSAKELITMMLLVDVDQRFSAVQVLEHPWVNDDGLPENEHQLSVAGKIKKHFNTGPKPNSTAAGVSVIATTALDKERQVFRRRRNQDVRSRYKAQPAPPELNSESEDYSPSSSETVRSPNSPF
BMP-2-inducible protein kinase (Homo sapiens), sequence (Q9NSY1 whole entry, looked up): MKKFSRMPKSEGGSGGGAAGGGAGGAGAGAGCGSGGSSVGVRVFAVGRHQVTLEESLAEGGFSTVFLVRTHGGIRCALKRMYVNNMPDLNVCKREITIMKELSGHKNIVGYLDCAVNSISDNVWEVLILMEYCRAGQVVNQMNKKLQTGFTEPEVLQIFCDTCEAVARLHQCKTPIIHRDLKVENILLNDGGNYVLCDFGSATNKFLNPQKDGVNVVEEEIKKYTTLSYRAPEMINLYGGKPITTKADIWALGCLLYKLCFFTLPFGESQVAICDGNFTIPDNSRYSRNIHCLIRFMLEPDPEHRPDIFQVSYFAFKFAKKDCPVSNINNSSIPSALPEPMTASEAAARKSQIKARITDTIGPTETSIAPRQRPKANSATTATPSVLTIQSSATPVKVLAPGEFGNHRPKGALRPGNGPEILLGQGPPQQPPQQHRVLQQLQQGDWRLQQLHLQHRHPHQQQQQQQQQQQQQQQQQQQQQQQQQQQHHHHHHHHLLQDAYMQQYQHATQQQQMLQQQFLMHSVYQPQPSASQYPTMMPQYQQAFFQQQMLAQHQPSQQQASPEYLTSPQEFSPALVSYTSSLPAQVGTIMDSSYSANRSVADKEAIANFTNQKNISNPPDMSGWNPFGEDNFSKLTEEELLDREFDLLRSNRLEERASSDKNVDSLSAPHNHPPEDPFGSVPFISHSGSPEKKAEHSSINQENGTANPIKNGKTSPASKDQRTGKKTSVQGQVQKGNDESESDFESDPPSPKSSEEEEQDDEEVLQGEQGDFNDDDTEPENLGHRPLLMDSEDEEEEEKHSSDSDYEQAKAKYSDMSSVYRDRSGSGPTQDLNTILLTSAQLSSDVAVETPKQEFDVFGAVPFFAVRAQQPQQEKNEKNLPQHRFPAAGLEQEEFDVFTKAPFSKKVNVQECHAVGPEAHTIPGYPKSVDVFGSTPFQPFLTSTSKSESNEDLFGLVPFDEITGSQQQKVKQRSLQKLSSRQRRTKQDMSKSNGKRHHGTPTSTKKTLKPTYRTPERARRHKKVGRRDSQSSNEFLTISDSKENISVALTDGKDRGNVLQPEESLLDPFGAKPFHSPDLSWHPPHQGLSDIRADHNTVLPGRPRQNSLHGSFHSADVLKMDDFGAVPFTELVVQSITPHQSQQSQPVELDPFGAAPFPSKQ
Cyclin-dependent kinase 15 (Homo sapiens), sequence (Q96Q40 whole entry): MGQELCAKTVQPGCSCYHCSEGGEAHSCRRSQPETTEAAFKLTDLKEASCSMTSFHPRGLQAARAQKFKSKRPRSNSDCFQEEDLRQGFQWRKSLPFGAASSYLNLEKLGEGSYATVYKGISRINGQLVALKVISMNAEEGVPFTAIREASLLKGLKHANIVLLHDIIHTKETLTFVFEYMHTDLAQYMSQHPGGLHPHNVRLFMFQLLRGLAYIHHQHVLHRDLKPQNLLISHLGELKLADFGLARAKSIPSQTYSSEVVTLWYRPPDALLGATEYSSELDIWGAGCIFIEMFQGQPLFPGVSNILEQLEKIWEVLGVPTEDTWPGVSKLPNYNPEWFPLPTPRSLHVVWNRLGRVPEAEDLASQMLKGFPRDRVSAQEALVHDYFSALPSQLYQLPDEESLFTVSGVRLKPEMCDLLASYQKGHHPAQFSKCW
Tyrosine-protein kinase receptor UFO (Homo sapiens), sequence (P30530 whole entry): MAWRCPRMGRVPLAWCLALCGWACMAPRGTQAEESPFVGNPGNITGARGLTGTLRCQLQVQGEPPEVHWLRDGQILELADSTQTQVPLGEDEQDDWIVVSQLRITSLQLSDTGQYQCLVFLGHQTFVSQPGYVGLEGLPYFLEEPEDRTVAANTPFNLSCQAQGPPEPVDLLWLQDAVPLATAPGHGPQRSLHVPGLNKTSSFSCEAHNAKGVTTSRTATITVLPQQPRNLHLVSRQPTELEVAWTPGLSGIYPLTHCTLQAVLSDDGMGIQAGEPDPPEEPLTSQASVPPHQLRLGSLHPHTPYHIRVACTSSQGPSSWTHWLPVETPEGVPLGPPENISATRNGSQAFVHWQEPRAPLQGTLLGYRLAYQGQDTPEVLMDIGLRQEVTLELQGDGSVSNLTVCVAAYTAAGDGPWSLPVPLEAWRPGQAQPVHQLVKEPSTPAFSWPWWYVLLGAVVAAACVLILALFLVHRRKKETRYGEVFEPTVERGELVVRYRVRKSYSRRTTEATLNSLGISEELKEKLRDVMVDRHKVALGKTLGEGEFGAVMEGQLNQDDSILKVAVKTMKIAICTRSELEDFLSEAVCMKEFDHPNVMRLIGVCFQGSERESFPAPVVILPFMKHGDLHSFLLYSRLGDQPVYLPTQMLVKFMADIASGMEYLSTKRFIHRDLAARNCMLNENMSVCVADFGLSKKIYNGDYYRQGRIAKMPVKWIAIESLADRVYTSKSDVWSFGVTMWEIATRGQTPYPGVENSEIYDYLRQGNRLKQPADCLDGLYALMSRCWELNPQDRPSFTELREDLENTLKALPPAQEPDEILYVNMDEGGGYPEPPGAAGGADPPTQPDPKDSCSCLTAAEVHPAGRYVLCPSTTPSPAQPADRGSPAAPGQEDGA

**Q.** What does the source list for `C[C@H](NC(=O)Nc1cc2[nH]ncc2c(CO)n1)c1ccccn1` [ERKi-NC]?
**A.** residual activity [1, 47]: 100%; residual activity [2, 47]: 78%; residual activity [3, 47]: 98%; residual activity [4, 47]: 93.6%; residual activity [5, 47]: 100%; residual activity [6, 47]: 63.8%; residual activity [7, 47]: 99.5%; residual activity [8, 47]: 100%; residual activity [9, 47]: 100%; residual activity [10, 47]: 100%; residual activity [11, 47]: 100%; inhibition [12]: 28.2%; residual activity [13, 47]: 100%; residual activity [14, 47]: 51.5%; residual activity [15, 47]: 100%; residual activity [16, 47]: 100%; residual activity [17, 47]: 69.9%; residual activity [18, 47]: 71.3%; inhibition [19]: 90.9%; inhibition [20]: 33.4%; residual activity [21, 47]: 100%; residual activity [22, 47]: 74.6%; inhibition [23]: 41.9%; inhibition [24]: 7.22%; residual activity [25, 47]: 37.7%; residual activity [26, 47]: 93.5%; residual activity [27, 47]: 100%; residual activity [28, 47]: 97.4%; residual activity [29, 47]: 48.9%; residual activity [30, 47]: 89.8%; residual activity [31, 47]: 100%; residual activity [32, 47]: 100%; residual activity [33, 47]: 82.2%; residual activity [34, 47]: 71.1%; residual activity [35, 47]: 100%; residual activity [36, 47]: 99.6%; residual activity [37, 47]: 100%; residual activity [38, 47]: 81.8%; residual activity [39, 47]: 100%; residual activity [40, 47]: 100%; residual activity [41, 47]: 100%; residual activity [42, 47]: 81.4%; residual activity [43, 47]: 97.4%; residual activity [44, 47]: 100%; residual activity [45, 47]: 100%; residual activity [46, 47]: 100%

**Q.** For `C[C@@H](NC(=O)Nc1cc2[nH]ncc2c(CO)n1)c1ccccc1` [ERKi], which residual activity [1, 48] is on record?
**A.** 94.1%

**Q.** What about the residual activity [2, 48] of the same molecule?
**A.** 95.9%

**Q.** What about the residual activity [3, 48] of the same molecule?
**A.** 100%

**Q.** And the residual activity [4, 48]?
**A.** 83.2%

**Q.** And the residual activity [5, 48]?
**A.** 70.6%

**Q.** What about the residual activity [6, 48] of the same molecule?
**A.** 94.9%

**Q.** And the residual activity [7, 48]?
**A.** 45%

**Q.** What about the residual activity [8, 48] of the same molecule?
**A.** 96%

**Q.** What about the residual activity [9, 48] of the same molecule?
**A.** 100%

**Q.** What about the residual activity [10, 48] of the same molecule?
**A.** 76.3%

**Q.** And the residual activity [11, 48]?
**A.** 66.7%

**Q.** And the inhibition [12]?
**A.** 6.72%

**Q.** And the residual activity [13, 48]?
**A.** 72.1%

**Q.** What about the residual activity [14, 48] of the same molecule?
**A.** 85.9%

**Q.** What about the residual activity [15, 48] of the same molecule?
**A.** 77.6%

**Q.** What about the residual activity [16, 48] of the same molecule?
**A.** 86.2%

**Q.** And the residual activity [17, 48]?
**A.** 94.7%

**Q.** What about the residual activity [18, 48] of the same molecule?
**A.** 97.2%

**Q.** What about the inhibition [19] of the same molecule?
**A.** 13.1%

**Q.** And the inhibition [20]?
**A.** 21.8%

**Q.** What about the residual activity [21, 48] of the same molecule?
**A.** 77.9%

**Q.** What about the residual activity [22, 48] of the same molecule?
**A.** 68.1%

**Q.** What about the inhibition [23] of the same molecule?
**A.** 35.3%

**Q.** And the inhibition [24]?
**A.** 35.8%

**Q.** What about the residual activity [25, 48] of the same molecule?
**A.** 100%

**Q.** What about the residual activity [26, 48] of the same molecule?
**A.** 96.5%

**Q.** And the residual activity [27, 48]?
**A.** 91.1%

**Q.** What about the residual activity [28, 48] of the same molecule?
**A.** 62.5%

**Q.** And the residual activity [29, 48]?
**A.** 83.1%

**Q.** And the residual activity [30, 48]?
**A.** 100%

**Q.** And the residual activity [31, 48]?
**A.** 88.7%

**Q.** What about the residual activity [32, 48] of the same molecule?
**A.** 80.6%

**Q.** What about the residual activity [33, 48] of the same molecule?
**A.** 90.2%

**Q.** And the residual activity [34, 48]?
**A.** 90.3%

**Q.** What about the residual activity [35, 48] of the same molecule?
**A.** 77.5%

**Q.** And the residual activity [36, 48]?
**A.** 86.8%

**Q.** What about the residual activity [37, 48] of the same molecule?
**A.** 79.4%

**Q.** What about the residual activity [38, 48] of the same molecule?
**A.** 98.3%

**Q.** What about the residual activity [39, 48] of the same molecule?
**A.** 95.6%

**Q.** And the residual activity [40, 48]?
**A.** 88%

**Q.** What about the residual activity [41, 48] of the same molecule?
**A.** 52.5%

**Q.** What about the residual activity [42, 48] of the same molecule?
**A.** 83.4%

**Q.** And the residual activity [43, 48]?
**A.** 80.6%

**Q.** And the residual activity [44, 48]?
**A.** 91.9%

**Q.** And the residual activity [45, 48]?
**A.** 86.8%

**Q.** And the residual activity [46, 48]?
**A.** 100%

Reference: ChEMBL document CHEMBL4507286 (2021)
